Broadly, the IC50 is the concentration at which inhibition is half-maximal. The low end stands for higher potency, the high end for lower potency.

Experiment [1] addresses T1, Hos2 histone deacetylase (Candida albicans, UniProt A0A1D8PJ17).
T1 construct: full length, N-terminal hexa-histidine tag, expressed in Sf9 cells
Briefly: fluorogenic deacetylase assay with Boc-Lys(Ac)-AMC, % inhibition at […]. The class given is biochemical. Conditions: read-out: % inhibition ± SE / 10 μM.

The target in experiment [2] is T1, Hos2 histone deacetylase. Briefly: biochemical.

T1 sequence (A0A1D8PJ17 entry or part of it): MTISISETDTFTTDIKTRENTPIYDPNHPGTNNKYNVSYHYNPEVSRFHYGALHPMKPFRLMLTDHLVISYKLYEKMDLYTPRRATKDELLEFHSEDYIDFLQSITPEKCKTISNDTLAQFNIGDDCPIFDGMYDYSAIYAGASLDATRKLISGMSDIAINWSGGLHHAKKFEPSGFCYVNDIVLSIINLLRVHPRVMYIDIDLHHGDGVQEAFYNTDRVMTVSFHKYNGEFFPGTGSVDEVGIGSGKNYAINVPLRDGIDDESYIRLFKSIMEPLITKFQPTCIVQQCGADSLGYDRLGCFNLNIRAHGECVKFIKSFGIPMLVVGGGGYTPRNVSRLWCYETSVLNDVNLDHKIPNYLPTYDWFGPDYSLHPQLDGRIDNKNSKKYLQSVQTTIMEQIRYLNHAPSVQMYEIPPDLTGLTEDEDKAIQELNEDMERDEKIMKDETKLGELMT

Take `Nc1ccccc1NC(=O)c1ccc(CNC(=O)OCc2cccnc2)cc1` [MS-275]: the inhibition at 10 µM in experiment [1] is 56.3%. In the case of `CC(/C=C/C(=O)NO)=C\[C@@H](C)C(=O)c1ccc(N(C)C)cc1` [TSA], in experiment [2], the IC50 is 2.8 nM.
